PMC12412324, “Design, synthesis, and evaluation of novel pinane-based thiazolidione derivatives with anti-glioblastoma activity” (Journal of Enzyme Inhibition and Medicinal Chemistry, 2025)

Tests used:
Format in all cases: cell-based
U251 = assay: CCK-8 cell viability assay, U251; settings: CCK-8, 72 h, mean ± SD of three independent experiments
Procedure: (§1) The U87MG cell line (catalogue iCell-h224) and U251MG cell line (catalogue iCell-h219) were purchased from iCell Bioscience Inc (Shanghai) cell bank. T98G cell line was obtained from Yining Zhang’s group. All cells were cultured in DMEM supplemented with 10% (v/v) FBS and penicillin-streptomycin in a humidified incubator at 37 °C under 5% CO2. The different compounds were dissolved in DMSO at the concentration of 10 mM and diluted in serum-free medium. The GBM cells were seeded into 96-well microplates at the density of 6000 cells/well and incubated for 24 h. Fresh media supplemented with different concentrations of the compounds were added, and the cells were cultured for 72 h. The CCK-8 reagent (TargetMol, C0005) was added to each well and the cells were incubated for 4 h at 37 °C. […] the absorbance was measured at […] using a microplate reader (Genios Tecan). An untreated control group was included and its viability was set as 100%. IC50 value of the two probes was calculated using GraphPad Prism 5.0.

T98G = assay: CCK-8 cell viability assay, T98G; settings: CCK-8, 72 h, mean ± SD of three independent experiments
Procedure: as §1

U87 = assay: CCK-8 cell viability assay, U87; settings: CCK-8, 72 h, mean ± SD of three independent experiments
Procedure: as §1

LO2 = assay: CCK-8 cytotoxicity, normal human cell line LO2
[1] = L02, mean ± SD of three independent experiments

Compound | IC50 (U251; Homo sapiens, U-251, 72 h) | IC50 (T98G; Homo sapiens, T98G, 72 h) | IC50 (U87; Homo sapiens, U-87 MG, 72 h) | IC50 (LO2; [1]) | IC50 (U251) | IC50 (T98G) | IC50 (U87) | IC50 (LO2; mean ± SD of three independent experiments)
COc1ccc(C=C2SC(=NN=CC3=CCC4CC3C4(C)C)N(C)C2=O)cc1 (stereo not shown) [C1, 2-(((6,6-Dimethylbicyclo[3.1.1]hept-2-en-2-yl)methylene)hydrazineylidene)-5–(4-methoxybenzylidene)-3-methylthiazolidin-4-one] | 12.1 ± 0.31 µM | 9.93 ± 0.11 µM | 13.5 ± 0.43 µM | > 50 µM |  |  |  | 
COc1ccc(C=C2SC(=NN=CC3=CCC4CC3C4(C)C)N(C)C2=O)cc1 (stereo not shown) [C2, 2-(((6,6-Dimethylbicyclo[3.1.1]hept-2-en-2-yl)methylene)hydrazineylidene)-5–(4-methoxybenzylidene)-3-methylthiazolidin-4-one] |  |  |  |  | 14 ± 0.71 µM | 10.1 ± 0.8 µM | 11.2 ± 0.26 µM | > 50 µM
CSc1ccc(C=C2SC(=NN=CC3=CCC4CC3C4(C)C)N(C)C2=O)cc1 (stereo not shown) [C3, 2-(((6,6-Dimethylbicyclo[3.1.1]hept-2-en-2-yl)methylene)hydrazineylidene)-3-methyl-5–(4-(methylthio)benzylidene)thiazolidin-4-one] | 15.2 ± 0.32 µM | 16.7 ± 0.67 µM | 12.3 ± 0.65 µM | > 50 µM |  |  |  | 
CN1C(=O)C(=Cc2ccc(N(C)C)cc2)SC1=NN=CC1=CCC2CC1C2(C)C (stereo not shown) [C4, 5–(4-(Dimethylamino)benzylidene)-2-(((6,6-dimethylbicyclo[3.1.1]hept-2-en-2-yl)methylene)hydrazineylidene)-3-methylthiazolidin-4-one] | 9.7 ± 0.64 µM | 8.8 ± 0.31 µM | 7.56 ± 0.76 µM | > 50 µM |  |  |  | 
COc1cc(C=C2SC(=NN=CC3=CCC4CC3C4(C)C)N(C)C2=O)ccc1O (stereo not shown) [C6, 2-(((6,6-Dimethylbicyclo[3.1.1]hept-2-en-2-yl)methylene)hydrazineylidene)-5–(4-hydroxy-3-methoxybenzylidene)-3-methylthiazolidin-4-one] | 10.2 ± 0.65 µM | 7.5 ± 0.98 µM | 9.37 ± 0.43 µM | > 50 µM |  |  |  | 
CN1C(=O)C(=Cc2ccc(Cl)cc2)SC1=NN=CC1=CCC2CC1C2(C)C (stereo not shown) [C7, 5–(4-Chlorobenzylidene)-2-(((6,6-dimethylbicyclo[3.1.1]hept-2-en-2-yl)methylene) hydrazineylidene)-3-methylthiazolidin-4-one] | 36.8 ± 0.43 µM | 33.4 ± 0.77 µM | > 50 µM | > 50 µM |  |  |  | 
CCN(CC)c1ccc(C=C2SC(=NN=CC3=CCC4CC3C4(C)C)N(C)C2=O)cc1 (stereo not shown) [C8, 5–(4-(Diethylamino)benzylidene)-2-(((6,6-dimethylbicyclo[3.1.1]hept-2-en-2-yl)methylene) hydrazineylidene)-3-methylthiazolidin-4-one] | 27.2 ± 0.62 µM | 38.1 ± 0.78 µM | 42.2 ± 0.46 µM | > 50 µM |  |  |  | 
Cc1ccc(O)c(C=C2SC(=NN=CC3=CCC4CC3C4(C)C)N(C)C2=O)c1 (stereo not shown) [C9, 2-(((6,6-Dimethylbicyclo[3.1.1]hept-2-en-2-yl)methylene)hydrazineylidene)-5–(2-hydroxy-5-methylbenzylidene)-3-methylthiazolidin-4-one] | 36.7 ± 0.32 µM | 32.11 ± 0.21 µM | 34.1 ± 0.57 µM | > 50 µM |  |  |  | 
CN1C(=O)C(=Cc2ccc(O)c(Cl)c2)SC1=NN=CC1=CCC2CC1C2(C)C (stereo not shown) [C10, 5–(3-Chloro-4-hydroxybenzylidene)-2-(((6,6-dimethylbicyclo[3.1.1]hept-2-en-2-yl)methylene)hydrazineylidene)-3-methylthiazolidin-4-one] | 8.29 ± 0.78 µM | 8.69 ± 0.17 µM | 9.86 ± 0.09 µM | > 50 µM |  |  |  | 
COc1ccc(C=C2SC(=NN=CC3=CCC4CC3C4(C)C)N(C)C2=O)cc1O (stereo not shown) [C11, 2-(((6,6-Dimethylbicyclo[3.1.1]hept-2-en-2-yl)methylene)hydrazineylidene)-5–(3-hydroxy-4-methoxybenzylidene)-3-methylthiazolidin-4-one] | 14.8 ± 0.1 µM | 12 ± 0.15 µM | 13.6 ± 0.21 µM | > 50 µM |  |  |  | 
CCOc1cc(C=C2SC(=NN=CC3=CCC4CC3C4(C)C)N(C)C2=O)ccc1O (stereo not shown) [C12, 2-(((6,6-Dimethylbicyclo[3.1.1]hept-2-en-2-yl)methylene)hydrazineylidene)-5–(3-ethoxy-4-hydroxybenzylidene)-3-methylthiazolidin-4-one] | 8.01 ± 0.79 µM | 7.1 ± 0.51 µM | 9.37 ± 0.35 µM | > 50 µM |  |  |  | 
COc1ccc(C=C2SC(=NN=CC3=CCC4CC3C4(C)C)N(C)C2=O)c(O)c1 (stereo not shown) [C13, 2-(((6,6-Dimethylbicyclo[3.1.1]hept-2-en-2-yl)methylene)hydrazineylidene)-5–(2-hydroxy-4-methoxybenzylidene)-3-methylthiazolidin-4-one] | 6.65 ± 0.75 µM | 5.54 ± 0.98 µM | 5.71 ± 0.23 µM | > 50 µM |  |  |  | 
CN1C(=O)/C(=C\c2ccc(O)cc2F)SC1NN=CC1=CCC2CC1C2(C)C (stereo not shown) [C14, 2–(2-((6,6-Dimethylbicyclo[3.1.1]hept-2-en-2-yl)methylene)hydrazineyl)-5-((E)-2-fluoro-4-hydroxybenzylidene)-3-methylthiazolidin-4-one] | 11.6 ± 0.89 µM | 14.8 ± 0.34 µM | 14.4 ± 0.73 µM | > 50 µM |  |  |  | 
Cc1cc(O)ccc1/C=C1/SC(NN=CC2=CCC3CC2C3(C)C)N(C)C1=O (stereo not shown) [C15, 2–(2-((6,6-Dimethylbicyclo[3.1.1]hept-2-en-2-yl)methylene)hydrazineyl)-5-((E)-4-hydroxy-2-methylbenzylidene)-3-methylthiazolidin-4-one] | 9.01 ± 0.34 µM | 7.63 ± 0.65 µM | 9.12 ± 0.43 µM | > 50 µM |  |  |  | 
Cc1cc(/C=C2/SC(NN=CC3=CCC4CC3C4(C)C)N(C)C2=O)ccc1O (stereo not shown) [C16, 2–(2-((6,6-Dimethylbicyclo[3.1.1]hept-2-en-2-yl)methylene)hydrazineyl)-5-((E)-4-hydroxy-3-methylbenzylidene)-3-methylthiazolidin-4-one] | 7.14 ± 0.11 µM | 6.63 ± 0.32 µM | 5.83 ± 0.56 µM | > 50 µM |  |  |  | 
COc1cc(O)ccc1/C=C1/SC(NN=CC2=CCC3CC2C3(C)C)N(C)C1=O (stereo not shown) [C17, 2–(2-((6,6-Dimethylbicyclo[3.1.1]hept-2-en-2-yl)methylene)hydrazineyl)-5-((E)-4-hydroxy-2-methoxybenzylidene)-3-methylthiazolidin-4-one] | 6.23 ± 0.41 µM | 5.1 ± 0.26 µM | 9.18 ± 0.2 µM | > 50 µM |  |  |  | 
